Laboratory results published in US12479847B2 (DANA-FARBER CANCER INSTITUTE, INC., priority 2019, dated 2025).

What was measured:
Assay in all cases: KINOMEscan (ScanMAX) kinase profiling
Assay type in all cases: binding
panel of 468 kinases [1] = molecular target: T1, panel of 468 kinases (Homo sapiens, UniProt Q9UKI8); conditions: TLK1; 1 μM; read-out: % control
T1 construct: purchased KINOMEscan (ScanMAX) service
T1 sequence (Q9UKI8 1-766): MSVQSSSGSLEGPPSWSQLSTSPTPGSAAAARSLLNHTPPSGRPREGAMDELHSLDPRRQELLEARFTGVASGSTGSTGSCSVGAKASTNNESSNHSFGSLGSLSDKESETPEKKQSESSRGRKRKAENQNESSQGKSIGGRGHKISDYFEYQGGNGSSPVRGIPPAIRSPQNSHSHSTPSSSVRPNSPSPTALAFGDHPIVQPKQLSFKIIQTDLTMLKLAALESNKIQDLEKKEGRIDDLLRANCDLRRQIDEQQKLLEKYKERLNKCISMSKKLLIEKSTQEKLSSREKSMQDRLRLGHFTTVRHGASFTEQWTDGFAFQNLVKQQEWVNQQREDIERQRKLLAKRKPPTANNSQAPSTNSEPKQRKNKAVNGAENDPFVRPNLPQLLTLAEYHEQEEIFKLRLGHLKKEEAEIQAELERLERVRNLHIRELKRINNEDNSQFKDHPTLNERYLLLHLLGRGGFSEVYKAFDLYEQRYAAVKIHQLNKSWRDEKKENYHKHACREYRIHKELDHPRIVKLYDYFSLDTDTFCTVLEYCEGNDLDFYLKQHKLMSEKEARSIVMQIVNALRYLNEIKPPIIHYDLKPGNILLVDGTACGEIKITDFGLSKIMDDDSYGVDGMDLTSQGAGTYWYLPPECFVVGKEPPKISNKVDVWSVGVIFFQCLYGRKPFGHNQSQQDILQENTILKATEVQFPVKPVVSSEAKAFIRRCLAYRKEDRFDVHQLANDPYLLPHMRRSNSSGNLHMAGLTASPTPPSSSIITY

panel of 468 kinases [2] = molecular target: T2, panel of 468 kinases (Homo sapiens, UniProt P42336, E545K); conditions: PIK3CA(E545K); 1 μM; read-out: % control
T2 construct: purchased KINOMEscan (ScanMAX) service
T2 sequence (P42336 whole entry E545K): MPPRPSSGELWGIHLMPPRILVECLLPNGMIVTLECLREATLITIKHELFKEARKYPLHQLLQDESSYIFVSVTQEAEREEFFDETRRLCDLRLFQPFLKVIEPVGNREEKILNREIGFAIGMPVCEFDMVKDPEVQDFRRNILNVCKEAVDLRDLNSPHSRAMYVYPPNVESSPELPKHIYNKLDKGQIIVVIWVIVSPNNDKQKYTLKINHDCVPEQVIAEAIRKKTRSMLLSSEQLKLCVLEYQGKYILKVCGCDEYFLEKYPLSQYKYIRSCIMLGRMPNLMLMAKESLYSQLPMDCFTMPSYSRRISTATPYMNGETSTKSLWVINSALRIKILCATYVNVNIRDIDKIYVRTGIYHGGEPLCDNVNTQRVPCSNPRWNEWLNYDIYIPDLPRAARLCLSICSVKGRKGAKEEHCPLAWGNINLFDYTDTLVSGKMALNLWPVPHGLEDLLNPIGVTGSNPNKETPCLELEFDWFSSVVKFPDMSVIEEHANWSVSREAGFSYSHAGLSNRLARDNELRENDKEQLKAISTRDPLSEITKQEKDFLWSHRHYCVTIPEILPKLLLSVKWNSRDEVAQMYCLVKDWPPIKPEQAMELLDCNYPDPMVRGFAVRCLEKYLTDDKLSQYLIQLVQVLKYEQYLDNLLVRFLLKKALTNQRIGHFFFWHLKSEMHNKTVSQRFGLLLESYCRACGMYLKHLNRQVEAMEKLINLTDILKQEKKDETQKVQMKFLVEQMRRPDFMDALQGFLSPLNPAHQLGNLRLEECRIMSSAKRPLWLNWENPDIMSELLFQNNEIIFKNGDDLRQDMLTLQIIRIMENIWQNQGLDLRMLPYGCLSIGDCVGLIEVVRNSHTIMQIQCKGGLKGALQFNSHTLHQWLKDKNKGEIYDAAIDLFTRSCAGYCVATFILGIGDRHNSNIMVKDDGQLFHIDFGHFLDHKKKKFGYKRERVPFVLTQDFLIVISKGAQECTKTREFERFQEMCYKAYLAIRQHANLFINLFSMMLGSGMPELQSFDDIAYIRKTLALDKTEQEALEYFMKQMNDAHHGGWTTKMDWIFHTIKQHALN

panel of 468 kinases [3] = molecular target: T3, panel of 468 kinases (Homo sapiens, UniProt Q8TD19); conditions: NEK9; 1 μM; read-out: % control
T3 construct: purchased KINOMEscan (ScanMAX) service
T3 sequence (Q8TD19 1-979): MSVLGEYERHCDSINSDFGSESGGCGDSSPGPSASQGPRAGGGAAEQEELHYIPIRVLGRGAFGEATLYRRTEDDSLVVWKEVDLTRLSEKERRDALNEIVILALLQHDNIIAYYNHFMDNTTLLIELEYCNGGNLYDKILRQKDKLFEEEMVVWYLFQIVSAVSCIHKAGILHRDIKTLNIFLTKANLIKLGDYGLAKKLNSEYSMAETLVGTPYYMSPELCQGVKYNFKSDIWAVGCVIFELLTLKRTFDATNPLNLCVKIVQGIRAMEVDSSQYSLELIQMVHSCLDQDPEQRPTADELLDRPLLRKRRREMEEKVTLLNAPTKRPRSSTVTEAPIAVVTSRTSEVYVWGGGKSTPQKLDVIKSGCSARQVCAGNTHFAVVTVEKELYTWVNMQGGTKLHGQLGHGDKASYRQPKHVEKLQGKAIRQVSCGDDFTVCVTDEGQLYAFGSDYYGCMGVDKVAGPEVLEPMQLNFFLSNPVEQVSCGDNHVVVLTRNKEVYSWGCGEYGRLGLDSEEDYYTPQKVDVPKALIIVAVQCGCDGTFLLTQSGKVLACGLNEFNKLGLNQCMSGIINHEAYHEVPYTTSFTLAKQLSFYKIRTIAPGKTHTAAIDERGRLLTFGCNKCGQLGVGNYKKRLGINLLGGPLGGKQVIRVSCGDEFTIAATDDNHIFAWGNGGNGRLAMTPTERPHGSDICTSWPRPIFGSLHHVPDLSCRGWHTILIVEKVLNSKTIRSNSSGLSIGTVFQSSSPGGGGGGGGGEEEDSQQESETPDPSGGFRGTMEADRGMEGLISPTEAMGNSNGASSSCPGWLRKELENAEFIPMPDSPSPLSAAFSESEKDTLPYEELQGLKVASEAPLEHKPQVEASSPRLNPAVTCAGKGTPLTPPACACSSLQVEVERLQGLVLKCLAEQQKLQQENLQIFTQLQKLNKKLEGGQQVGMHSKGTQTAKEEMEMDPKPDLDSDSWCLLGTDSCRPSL

panel of 468 kinases [4] = molecular target: T4, panel of 468 kinases (Homo sapiens, UniProt P42679); conditions: CTK; 1 μM; read-out: % control
T4 construct: purchased KINOMEscan (ScanMAX) service
T4 sequence (P42679 1-507): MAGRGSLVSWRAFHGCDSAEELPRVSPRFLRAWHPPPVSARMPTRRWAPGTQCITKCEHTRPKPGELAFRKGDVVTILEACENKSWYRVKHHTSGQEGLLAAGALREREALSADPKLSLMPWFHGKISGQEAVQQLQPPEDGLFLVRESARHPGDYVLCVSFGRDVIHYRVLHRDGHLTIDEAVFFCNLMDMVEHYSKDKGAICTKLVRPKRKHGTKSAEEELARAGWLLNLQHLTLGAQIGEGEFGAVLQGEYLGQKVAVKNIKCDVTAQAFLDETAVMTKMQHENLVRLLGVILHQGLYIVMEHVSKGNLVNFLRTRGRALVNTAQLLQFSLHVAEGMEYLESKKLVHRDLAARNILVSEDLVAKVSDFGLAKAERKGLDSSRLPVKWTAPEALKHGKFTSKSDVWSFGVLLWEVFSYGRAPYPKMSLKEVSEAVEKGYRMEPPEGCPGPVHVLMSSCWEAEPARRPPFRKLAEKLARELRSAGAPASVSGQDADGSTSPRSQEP

## CNc1nc(Nc2ccc(S(=O)(=O)N3CCC(N4CCOCC4)CC3)cc2OC)nc2[nH]cc(Cl)c12 [Compound 12, 5-chloro-N2-(2-methoxy-4-((4-morpholinopiperidin-1-yl)sulfonyl)phenyl)-N4-methyl-7H-pyrrolo[2,3-d]pyrimidine-2,4-diamine]
Panel of 468 kinases [1]
  remaining binding at 1 µM: 89%
Panel of 468 kinases [2]
  remaining binding at 1 µM: 89%
Panel of 468 kinases [3]
  remaining binding at 1 µM: 100%
Panel of 468 kinases [4]
  remaining binding at 1 µM: 100%

## CNc1nc(Nc2ccc(P3(=O)CCN(C4CCOCC4)CC3)cc2OC)nc2[nH]cc(Cl)c12 [Compound 77, 4-(4-((5-chloro-4-(methylamino)-7H-pyrrolo[2,3-d]pyrimidin-2-yl)amino)-3-methoxyphenyl)-1-(tetrahydro-2H-pyran-4-yl)-1,4-azaphosphinane 4-oxide]
Panel of 468 kinases [1]
  remaining binding at 1 µM: 96%
Panel of 468 kinases [2]
  remaining binding at 1 µM: 94%
Panel of 468 kinases [3]
  remaining binding at 1 µM: 100%
Panel of 468 kinases [4]
  remaining binding at 1 µM: 99%

## CNc1nc(Nc2ccc(C(=O)N3CCC(N4CCOCC4)CC3)c3c2OCO3)nc2[nH]cc(Cl)c12 [Compound 75, (7-((5-chloro-4-(methylamino)-7H-pyrrolo[2,3-d]pyrimidin-2-yl)amino)benzo[d][1,3]dioxol-4-yl)(4-morpholinopiperidin-1-yl)methanone]
Panel of 468 kinases [1]
  remaining binding at 1 µM: 86%
Panel of 468 kinases [2]
  remaining binding at 1 µM: 100%
Panel of 468 kinases [3]
  remaining binding at 1 µM: 100%
Panel of 468 kinases [4]
  remaining binding at 1 µM: 100%
